Source: patent publication US12624044B2, “SMARCA degraders and uses thereof” (Kymera Therapeutics, Inc., priority 2019, dated 2026)

Legend:
SMARCA4 = target: T1, SMARCA4 (Homo sapiens, UniProt P51532); assay: SMARCA4 Western blot MV4-11 degradation; assay type: cell-based; conditions: 24 h; for DC50: MV4-11 cells, read-out: SMARCA4 WB MV411 degradation 24 h: Average external-Abs DC50; for Dmax: MV4-11, MV4-11 cells, read-out: SMARCA4 WB MV411 degradation 24 h: Average Dmax %
T1 construct: SMARCA2 and SMARCA4 protein degradation in MV4-11 cells; endogenous in cells; host or cells: MV4-11
Description: Cells were seeded into 6-well plates (MV4-11: 4×10^6 cells/well/1 ml) and 1 ml of 2× compound solution was added into the well to make the final concentration and the plates were mixed well and incubated for 24 hours (No cytotoxicity was observed). The cell were collected with media and spun at 3000 rpm for 5 minutes. The supernatant was aspirated and the well and the cells were washed with cold PBS once and combined for centrifugation again; the supernatant aspirated again. 200 ul pre-chilled RIPAlysis buffer (Boston BioProducts BP-115D) with protease/phosphatase inhibitor (Roche 05892791001/Roche 04906837001) was directly added into the tube to lyze the cells for 20 minutes on ice. The cell lysate were collected into EP tubes and spun at 13000 rpm for 20 minutes and 72 ul supernatant was transferred to a fresh EP tube containing 18 ul of 5× loading buffer (Beyotime Bio P0015) to make the loading samples. The samples were heated to 100° C. for 10 minutes and cooled to RT and microcentrifuged. 20 ul of samples were loaded onto SDS-PAGE gel (Novex, WG1402BOX) and the gel was run at 80 V for 20 minutes and 120 V for 1.5 hours. The samples were electrotransfer to a NC membrane using wet-transfer method with 250 mA for 2.5 hours. The membrane was blocked with LICOR blocking buffer (LI-COR, 927-50000) for 1 hour. The membrane was washed three times with TBST (CST #9997S), 5 minutes each. Incubation was performed with primary antibody prepared in blocking buffer with 0.1% Tween-20 (Solarbio, P8220) at 4° C. overnight (Anti-SMARCA2/BRM antibody (ab15597) 1:500; Anti-BRG1 antibody [EPR3912] (ab108318) 1:1000; Rabbit anti-Baf180 antibody [EPR15860] (Abcam, ab196022) 1:1000; mouse anti-beta-Actin (8H10D10) (CST #3700) 1:10000). The membrane was washed three times with TBST, 5 minutes each. Incubation with secondary antibody was performed for 1 hour at RT (anti-rabbit IgG (Licor, 926-32211) 1:5000; anti-mouse IgG (LI-COR, 926-68070) 1:5000). The membrane was washed three times with TBST, 5 minutes each and lastly the LiCOR was read.
The letter codes for the percentage of SMARCA degradation after 24 hours (Dmax %) include: A (>90% degradation), B (>70-90% degradation), C (50-70% degradation), and D (<50% degradation).

SMARCA2 = SMARCA2 (Homo sapiens, UniProt P51531); assay: MSD SMARCA2 degradation in A549 cell line; assay type: cell-based; conditions: 24 h; for DC50: A549 cells, read-out: SMARCA2 MSD A549 degradation 24 h: Average external-Abs DC50; for Dmax: A549, A549 cells
In short: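 SMARCA2 remaining was measured by MSD electrochemiluminescence on RIPA lysates (anti-SMARCA2 plus SULFO-TAG anti-rabbit). Prior exposure: 24 h of A549 cells to a 10-point, 3-fold dilution series topping at 1000 nM final; Dmax % given as graded codes.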

T1 sequence (P51532 whole entry): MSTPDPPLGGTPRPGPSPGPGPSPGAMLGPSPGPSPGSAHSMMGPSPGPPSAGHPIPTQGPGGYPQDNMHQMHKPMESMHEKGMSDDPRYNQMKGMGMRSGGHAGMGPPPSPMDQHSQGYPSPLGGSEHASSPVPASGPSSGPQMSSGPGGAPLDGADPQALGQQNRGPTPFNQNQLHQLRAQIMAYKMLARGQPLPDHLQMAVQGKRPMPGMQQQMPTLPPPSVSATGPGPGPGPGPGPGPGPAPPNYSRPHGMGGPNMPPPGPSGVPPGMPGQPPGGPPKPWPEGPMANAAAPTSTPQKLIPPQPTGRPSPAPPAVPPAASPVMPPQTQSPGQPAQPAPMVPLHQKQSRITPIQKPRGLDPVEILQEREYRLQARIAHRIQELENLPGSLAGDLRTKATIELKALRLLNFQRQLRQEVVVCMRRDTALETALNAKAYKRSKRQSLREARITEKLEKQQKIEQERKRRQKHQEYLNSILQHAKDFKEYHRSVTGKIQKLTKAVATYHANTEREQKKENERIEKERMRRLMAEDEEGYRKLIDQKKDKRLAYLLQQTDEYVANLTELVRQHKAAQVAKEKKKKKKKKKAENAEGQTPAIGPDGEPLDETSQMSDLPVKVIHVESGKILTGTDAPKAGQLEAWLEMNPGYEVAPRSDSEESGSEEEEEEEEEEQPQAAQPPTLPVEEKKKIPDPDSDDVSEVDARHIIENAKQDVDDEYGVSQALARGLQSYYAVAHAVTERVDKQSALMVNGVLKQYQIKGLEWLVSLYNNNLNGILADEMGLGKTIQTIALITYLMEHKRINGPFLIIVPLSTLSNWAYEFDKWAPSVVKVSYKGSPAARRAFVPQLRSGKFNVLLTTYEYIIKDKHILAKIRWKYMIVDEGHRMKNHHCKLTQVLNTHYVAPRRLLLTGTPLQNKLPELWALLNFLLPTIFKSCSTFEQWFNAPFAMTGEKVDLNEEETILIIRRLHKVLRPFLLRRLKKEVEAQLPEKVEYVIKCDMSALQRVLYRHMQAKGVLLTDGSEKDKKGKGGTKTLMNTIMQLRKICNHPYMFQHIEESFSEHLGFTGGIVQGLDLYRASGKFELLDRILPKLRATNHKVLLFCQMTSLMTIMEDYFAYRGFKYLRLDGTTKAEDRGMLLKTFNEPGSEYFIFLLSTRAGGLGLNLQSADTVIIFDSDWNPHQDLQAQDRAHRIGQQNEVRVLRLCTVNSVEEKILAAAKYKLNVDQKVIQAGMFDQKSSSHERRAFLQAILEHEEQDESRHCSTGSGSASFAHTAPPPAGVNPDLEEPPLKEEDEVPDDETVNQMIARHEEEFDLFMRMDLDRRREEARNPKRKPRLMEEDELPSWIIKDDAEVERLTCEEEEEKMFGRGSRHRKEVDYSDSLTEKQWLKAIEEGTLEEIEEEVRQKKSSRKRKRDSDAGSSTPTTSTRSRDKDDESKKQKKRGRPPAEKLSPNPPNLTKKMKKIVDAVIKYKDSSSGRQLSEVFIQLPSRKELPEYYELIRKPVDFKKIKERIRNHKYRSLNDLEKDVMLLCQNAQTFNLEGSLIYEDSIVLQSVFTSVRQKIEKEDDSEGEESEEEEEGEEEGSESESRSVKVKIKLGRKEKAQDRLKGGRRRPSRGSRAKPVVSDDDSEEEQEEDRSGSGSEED
SMARCA2, sequence (P51531 whole entry): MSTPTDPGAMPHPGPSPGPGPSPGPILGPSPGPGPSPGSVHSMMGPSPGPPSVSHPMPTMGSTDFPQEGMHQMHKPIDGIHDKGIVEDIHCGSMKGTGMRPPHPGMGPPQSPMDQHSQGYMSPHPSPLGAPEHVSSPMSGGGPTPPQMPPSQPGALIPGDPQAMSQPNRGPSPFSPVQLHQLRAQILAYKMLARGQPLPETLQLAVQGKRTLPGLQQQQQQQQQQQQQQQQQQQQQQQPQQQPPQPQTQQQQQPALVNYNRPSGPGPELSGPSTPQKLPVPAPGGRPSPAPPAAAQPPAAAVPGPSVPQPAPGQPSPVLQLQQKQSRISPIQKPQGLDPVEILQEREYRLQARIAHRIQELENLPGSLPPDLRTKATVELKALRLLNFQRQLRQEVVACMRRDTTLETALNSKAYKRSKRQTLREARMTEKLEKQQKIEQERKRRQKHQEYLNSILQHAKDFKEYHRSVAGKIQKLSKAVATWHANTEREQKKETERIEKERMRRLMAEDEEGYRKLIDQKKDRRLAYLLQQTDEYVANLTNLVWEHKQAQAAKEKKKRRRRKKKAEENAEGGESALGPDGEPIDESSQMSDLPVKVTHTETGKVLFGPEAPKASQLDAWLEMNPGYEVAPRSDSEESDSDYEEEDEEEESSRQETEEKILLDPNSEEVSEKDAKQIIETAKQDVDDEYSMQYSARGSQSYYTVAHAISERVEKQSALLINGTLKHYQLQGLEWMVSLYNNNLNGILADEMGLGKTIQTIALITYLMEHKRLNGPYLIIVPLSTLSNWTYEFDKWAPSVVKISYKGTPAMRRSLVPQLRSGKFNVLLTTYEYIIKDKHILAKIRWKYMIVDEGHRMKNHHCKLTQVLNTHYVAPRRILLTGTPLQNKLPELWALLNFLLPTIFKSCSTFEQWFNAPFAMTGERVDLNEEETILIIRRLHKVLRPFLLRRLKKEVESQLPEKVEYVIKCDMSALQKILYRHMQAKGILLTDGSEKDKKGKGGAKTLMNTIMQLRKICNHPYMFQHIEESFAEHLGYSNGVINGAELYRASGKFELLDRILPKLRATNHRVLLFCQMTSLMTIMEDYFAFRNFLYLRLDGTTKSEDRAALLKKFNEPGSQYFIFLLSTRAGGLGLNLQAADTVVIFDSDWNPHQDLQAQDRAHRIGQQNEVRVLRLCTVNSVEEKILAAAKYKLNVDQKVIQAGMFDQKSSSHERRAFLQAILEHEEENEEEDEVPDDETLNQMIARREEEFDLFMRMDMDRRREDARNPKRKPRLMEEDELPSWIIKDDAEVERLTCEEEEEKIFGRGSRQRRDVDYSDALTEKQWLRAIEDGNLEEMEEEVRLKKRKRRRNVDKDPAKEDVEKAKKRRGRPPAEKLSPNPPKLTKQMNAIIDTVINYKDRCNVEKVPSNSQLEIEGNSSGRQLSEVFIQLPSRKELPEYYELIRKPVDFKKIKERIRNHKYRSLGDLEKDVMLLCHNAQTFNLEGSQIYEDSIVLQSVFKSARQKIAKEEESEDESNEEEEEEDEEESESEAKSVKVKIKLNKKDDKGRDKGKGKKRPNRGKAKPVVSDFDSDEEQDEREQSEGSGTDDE

DC50 (SMARCA4) [nM]	DC50 (SMARCA2) [nM]	Structure (SMILES)	Dmax (SMARCA4) [%]	Dmax (SMARCA2) [%]
< 100	< 100	Cn1c(=O)n(C2CCC(=O)NC2=O)c2ccc(C3CC4(C3)CC(N3CCC(c5cnc(N6C7CCC6CN(c6cc(-c8ccccc8O)nnc6N)C7)nc5)CC3)C4)cc21 (single isomer, unassigned) [I-536 (P2), 3-(5-(6-(4-(2-(3-(3-amino-6-(2-hydroxyphenyl)pyridazin-4-yl)-3,8-diazabicyclo[3.2.1]octan-8-yl)pyrimidin-5-yl)piperidin-1-yl)spiro[3.3]heptan-2-yl)-3-methyl-2-oxo-2,3-dihydro-1H-benzo[d]imidazol-1-yl)piperidine-2,6-dione]	–	–
< 100	< 100	Cn1c(=O)n(C2CCC(=O)NC2=O)c2ccc(C3CC4(C3)CC(N3CCC(c5cnc(N6C7CCC6CN(c6cc(-c8ccccc8O)nnc6N)C7)nc5)CC3)C4)cc21 (single isomer, unassigned) [I-536 (P3), 3-(5-(6-(4-(2-(3-(3-amino-6-(2-hydroxyphenyl)pyridazin-4-yl)-3,8-diazabicyclo[3.2.1]octan-8-yl)pyrimidin-5-yl)piperidin-1-yl)spiro[3.3]heptan-2-yl)-3-methyl-2-oxo-2,3-dihydro-1H-benzo[d]imidazol-1-yl)piperidine-2,6-dione]	–	–
< 100	< 100	Nc1nnc(-c2ccccc2O)cc1-c1cnn(C2CCN([C@H]3CC[C@@H](CNc4ccc5c(c4)C(=O)N(C4CCC(=O)NC4=O)C5=O)CC3)CC2)c1 (stereo partly drawn) [I-281, 5-((((1s,4s)-4-(4-(4-(3-amino-6-(2-hydroxyphenyl)pyridazin-4-yl)-1H-pyrazol-1-yl)piperidin-1-yl)cyclohexyl)methyl)amino)-2-(2,6-dioxopiperidin-3-yl)isoindoline-1,3-dione]	> 90	> 90
< 100	< 100	Nc1nnc(-c2ccccc2O)cc1-c1cnn(C2CCN(C3CCC(Nc4cccc5c4C(=O)N(C4CCC(=O)NC4=O)C5=O)CC3)CC2)c1 (stereo not drawn) [I-322]	> 90	> 90
< 100	< 100	Nc1nnc(-c2ccccc2O)cc1-c1cnn(C2CCN(C3CCC(Nc4ccc5c(c4)C(=O)N(C4CCC(=O)NC4=O)C5=O)CC3)CC2)c1 (stereo not drawn) [I-323]	> 90	> 90
< 100	< 100	Nc1nnc(-c2ccccc2O)cc1-c1cnn(C2CCN(C3CCC(CNc4cccc5c4C(=O)N(C4CCC(=O)NC4=O)C5=O)CC3)CC2)c1 (stereo not drawn) [I-324]	70 to 90	70 to 90
< 100	< 100	Nc1nnc(-c2ccccc2O)cc1-c1cnn(C2CCN([C@H]3CC[C@H](CNc4ccc5c(c4)C(=O)N(C4CCC(=O)NC4=O)C5=O)CC3)CC2)c1 (stereo partly drawn) [I-325, 5-((((1r,4r)-4-(4-(4-(3-amino-6-(2-hydroxyphenyl)pyridazin-4-yl)-1H-pyrazol-1-yl)piperidin-1-yl)cyclohexyl)methyl)amino)-2-(2,6-dioxopiperidin-3-yl)isoindoline-1,3-dione]	70 to 90	70 to 90
< 100	100 to 500	Cc1ncsc1-c1ccc(CNC(=O)[C@@H]2C[C@@H](O)CN2C(=O)[C@@H](NC(=O)C[C@H]2CC[C@H](N3CCC(n4cc(-c5cc(-c6ccccc6O)nnc5N)cn4)CC3)CC2)C(C)(C)C)cc1 [I-328]	> 90	> 90
< 100	100 to 500	Cc1ncsc1-c1ccc(CNC(=O)[C@@H]2C[C@@H](O)CN2C(=O)[C@@H](NC(=O)C2CC3(C2)CC(N2CCC(n4cc(-c5cc(-c6ccccc6O)nnc5N)cn4)CC2)C3)C(C)(C)C)cc1 (stereo partly drawn) [I-329]	> 90	> 90
< 100	100 to 500	Cc1ncsc1-c1ccc(CNC(=O)[C@@H]2C[C@@H](O)CN2C(=O)[C@@H](NC(=O)CCCCCC2CCC(N3CCC(Cn4cc(-c5cc(-c6ccccc6O)nnc5N)cn4)CC3)CC2)C(C)(C)C)cc1 (stereo partly drawn) [I-330]	70 to 90	> 90

Structure (SMILES)	DC50 (SMARCA4) [nM]	DC50 (SMARCA2) [nM]	Dmax (SMARCA4) [%]	Dmax (SMARCA2) [%]
Cn1c(=O)n(C2CCC(=O)NC2=O)c2ccc(CCCN3CCC(c4nccc(N5C6CCC5CN(c5cc(-c7ccccc7O)nnc5N)C6)n4)CC3)cc21 (stereo not drawn) [I-278]	< 100	< 100	> 90	> 90
Cn1c(=O)n(C2CCC(=O)NC2=O)c2ccc([C@H]3CC[C@@H](N4CCC(c5nccc(N6C7CCC6CN(c6cc(-c8ccccc8O)nnc6N)C7)n5)CC4)CC3)cc21 (stereo partly drawn) [I-279, 3-(5-((1s,4s)-4-(4-(4-(3-(3-amino-6-(2-hydroxyphenyl)pyridazin-4-yl)-3,8-diazabicyclo[3.2.1]octan-8-yl)pyrimidin-2-yl)piperidin-1-yl)cyclohexyl)-3-methyl-2-oxo-2,3-dihydro-1H-benzo[d]imidazol-1-yl)piperidine-2,6-dion]	< 100	< 100	> 90	> 90
Cn1c(=O)n(C2CCC(=O)NC2=O)c2ccc([C@H]3CC[C@H](N4CCC(c5nccc(N6C7CCC6CN(c6cc(-c8ccccc8O)nnc6N)C7)n5)CC4)CC3)cc21 (stereo partly drawn) [I-280, 3-(5-((1r,4r)-4-(4-(4-(3-(3-amino-6-(2-hydroxyphenyl)pyridazin-4-yl)-3,8-diazabicyclo[3.2.1]octan-8-yl)pyrimidin-2-yl)piperidin-1-yl)cyclohexyl)-3-methyl-2-oxo-2,3-dihydro-1H-benzo[d]imidazol-1-yl)piperidine-2,6-dione]	< 100	< 100	> 90	> 90
COc1ccccc1-c1cc(N2CC3CCC(C2)N3c2ncc(C3CCN(CCCc4ccc5c(c4)n(C)c(=O)n5C4CCC(=O)NC4=O)CC3)cn2)c(N)nn1 (stereo not drawn) [I-326]	100 to 500	> 1000	50 to 70	< 50
COc1ccccc1-c1cc(N2CC3CCC(C2)N3c2ncc([C@H]3CC[C@@H](CC(=O)N[C@H](C(=O)N4C[C@H](O)C[C@H]4C(=O)NCc4ccc(-c5scnc5C)cc4)C(C)(C)C)CC3)cn2)c(N)nn1 [I-331]	< 100	100 to 500	> 90	> 90
Cc1ncsc1-c1ccc(CNC(=O)[C@@H]2C[C@@H](O)CN2C(=O)[C@@H](NC(=O)C[C@H]2CC[C@H](c3cnc(N4C5CCC4CN(c4cc(-c6ccccc6O)nnc4N)C5)nc3)CC2)C(C)(C)C)cc1 [I-332]	< 100	< 100	> 90	> 90
Cc1ncsc1-c1ccc(CNC(=O)[C@@H]2C[C@@H](O)CN2C(=O)[C@@H](NC(=O)N[C@H]2CC[C@H](c3cnc(N4C5CCC4CN(c4cc(-c6ccccc6O)nnc4N)C5)nc3)CC2)C(C)(C)C)cc1 [I-333]	< 100	> 1000	> 90	< 50
Cc1ncsc1-c1ccc(CNC(=O)[C@@H]2C[C@@H](O)CN2C(=O)[C@@H](NC(=O)N[C@H]2CC[C@@H](c3cnc(N4C5CCC4CN(c4cc(-c6ccccc6O)nnc4N)C5)nc3)CC2)C(C)(C)C)cc1 [I-334]	< 100	501 to 1000	> 90	70 to 90
Cc1ncsc1-c1ccc(CNC(=O)[C@@H]2C[C@@H](O)CN2C(=O)[C@@H](NC(=O)Cc2ccc(-c3cnc(N4C5CCC4CN(c4cc(-c6ccccc6O)nnc4N)C5)nc3)cc2)C(C)(C)C)cc1 [I-335]	< 100	< 100	> 90	> 90
